The results in this text go back to patent publication US20250345295A1, “LMK235 COMPOSITIONS AND METHODS” (UNM Rainforest Innovations, priority 2024, published 2025).

Common to all, as to type: in vivo, mouse
Assay [1] has as its system C57BL/6 mice with TIC model. Briefly: von Frey mechanical threshold, TIC trigeminal nerve injury model. The source says: Mice underwent the TIC nerve injury surgery, a simplified non-ligation variant of the trigeminal CCI-ION model previously described (Lyons et al., Neuroscience 2015 Jun. 4; 295:126-138; Ma et al., MolBrain 2012 Dec. 28; 5:44). Briefly, mice were anesthetized with isoflurane (3-4%) and a piece of chromic gut suture (2 mm length, 6-0) was placed parallel to the infraorbital nerve (ION) adjacent to the maxillary bone infraorbital fissure at a site just under the lower eyelid. Naïve controls underwent anesthesia only. The chronic trigeminal inflammatory compression (TIC) nerve injury model induces measurable changes in evoked reflexive or higher order pain-like and anxiety-like behaviors but are not otherwise detectable.
The HDAC4/5 inhibitor LMK235 (s.c., 5 mg/kg)(N-[[6-(Hydroxyamino)-6-oxohexyl]oxy]-3,5-dimethyl-benzamide) (Cayman Chemical Co., Ann Arbor, MI) was used at previously published dilutions (Bennett G J, Xie Y K. Pain 1988 April; 33:87-107). […] All treatments with the HDACi (5 mg/kg) or vehicle were given daily for seven consecutive days in the neck scruff (s.c.) for comparisons to naïve control mice.
In the first post-treatment study, male C57B1/6 mice were subcutaneously (s.c.) injected daily for seven days beginning in week 3 following the trigeminal nerve insult induced surgically. Withdrawal thresholds were tested weekly with von Frey fiber stimulation on the snout. One TIC mouse behaving erratically on day 1-7 was eliminated from the study.
In the second post-treatment study, C57B1/6 mice were treated daily for 14 days in week 8 and week 9 after the nerve insult. Withdrawal thresholds were determined weekly with von Frey fiber stimulation on the snout until experiment end.
Testing was done by an observer blinded to study group. Von Frey assessment of snout withdrawal threshold was conducted prior to and at least once a week after nerve injury to confirm development of craniofacial neuropathic pain. […]
Mechanical and cold sensitivity was modified for face as previously described (Montera M A, Westlund K N, Bio-protocol2020 April 20; 10(8):e3591-e3591; Lyons et al., Neuroscience 2015 Jun. 4; 295:126-138; Ma et al., Mol Brain 2012 Dec. 28; 5:44; Montera et al., Channels (Austin). 2021 December; 15(1):31-37). Briefly, animals were gently restrained and the mechanical threshold for nocifensive head withdrawal was determined using calibrated von Frey filaments (0.008 g-6.0 g) using the Up-Down method (Chaplan et al., J Neurosci Methods 1994 July; 53(1):55-63; FIG. 2). Cold sensitivity was determined by applying a 10° C. cold coil to the ION's receptive field and measuring the time until an animal withdrew its head (Montera et al., Channels (Austin). 2021 December; 15(1):31-37).

Assay [2] relates to FRICT-ION mice. Briefly: Cold probe (10° C.) sensitivity test, FRICT-ION model. As to conditions: 5 mg/kg, vs FRICT-ION+vehicle. The source says:
The FRICT-ION chronic neuropathic pain model combines the chemical irritation of chromic gut suture with some physical compression of the maxillary branch (V2) of the trigeminal nerve. FRICT-ION model was induced in 9-week-old mice anesthetized briefly with isoflurane (2-3%). Intraoral surgical incision was made with a small scalpel puncture at the buccal cheek crease. A piece of chromic gut suture (3 mm length, 4-0) was placed parallel to the infraorbital nerve (ION) and pushed into the tight space to follow the trigeminal nerve as it passes into the foramen rotundum of the skull. The model simulates blunt force traumatic injury to the nerve, residual wound debris, or other irritation.
On the day of FRICT-ION model induction in BALBc mice, LMK235 was administered and treatment was continued for seven days. Withdrawal thresholds were determined weekly with von Frey fiber stimulation on the snout. Cold sensitivity on the snout and anxiety were tested once prior to experiment end in week 8-9.
Mechanical and cold sensitivity was modified for face as previously described (Montera M A, Westlund K N, Bio-protocol2020 April 20; 10(8):e3591-e3591; Lyons et al., Neuroscience 2015 Jun. 4; 295:126-138; Ma et al., Mol Brain 2012 Dec. 28; 5:44; Montera et al., Channels (Austin). 2021 December; 15(1):31-37). […]

Assay [3] has as its system mice with trigeminal nerve injury. Briefly: Light/dark place preference test (anxiety-like behavior). The following applies: nerve-injured mice, weeks 6-9 post surgery. How it is done:
Anxiety-related behaviors were assessed in a manner typical in the literature—i.e., once at the end in week 8 since anxiety develops only in mice 6-8 weeks after persisting nerve injury (e.g., Lyons et al., Neuroscience 2015 Jun. 4; 295:126-138). The effects of HDACi on chronic craniofacial pain-related behaviors were assessed using light/dark place preference test and zero maze.
Animals were exposed to acoustic startle (5 minutes) immediately prior to placement in the light/dark place preference box as in a previous study (Lyons et al., Neuroscience 2015 Jun. 4; 295:126-138). Mils acoustic startle stress just prior to the test induces panic anxiety-like behavior with increased time and entries in the open arms compared to controls (de Paula HMG, Hoshino K, Behav Brain Res 2003 Dec. 17; 147(1-2):157-162; de Paula HMG, Hoshino K, Physiol Behav 2004 January; 80(4):459-464; Kontinen et al., Pain 1999 March;80(1-2):341-346). In the light/dark box place preference task (total time 10 minutes) anxiety-like behaviors were recorded as: (i) total time spent in the light area, (ii) number of entries into the light area, (iii) number of rearing events/exploratory behavior, (iv) latency of the first transition into the light chamber, and (v) latency of first re-entry (transition) back into the dark chamber.

Entries after “also recorded” stand apart in the source; their conditions may differ.

On to `Cc1cc(C)cc(C(=O)NOCCCCCC(=O)NO)c1` [LMK235, N-[[6-(Hydroxyamino)-6-oxohexyl]oxy]-3,5-dimethyl-benzamide], for which the “mechanical threshold (von Frey), ipsilateral” value in assay [1] (C57BL/6 TIC mice, 5 mg/kg s.c., post-treatment 8 weeks after nerve injury, vs vehicle, 5 mg/kg) is recorded as “significantly reversed; also recorded: significantly increased the mechanical threshold”. For the same compound, the “mechanical threshold (von Frey), contralateral side” value in assay [1] (TIC mice treated in week 8) is listed as “complete return to naïve baseline”. Besides, the “whisker pad mechanical threshold (von Frey)” value in assay [1] (male C57BL/6 TIC mice, 5 mg/kg s.c. daily for seven days in week 3, vs vehicle, 5 mg/kg) is recorded as “reversed to naïve baseline; also recorded: returned whisker pad mechanical threshold to naïve baseline”. The “time mechanical threshold remained at naïve baseline” value in assay [1] (male C57BL/6 TIC mice, 5 mg/kg s.c. daily in week 3) is listed as 4-6 weeks. Besides, the “cold hypersensitivity (10° C. cold probe on snout)” value in assay [2] is “significantly improved; also recorded: reduced”. In addition, in assay [3], the “anxiety-like behaviors, light/dark box test” value is on record as “reduction of anxiety measures; also recorded: inhibited the development of anxiety-like behaviors”.
